Columns and labels:
[1] = molecular target: α1B (Cav2.2), β3 and α2δ subunits of the N-type calcium channel (stable HEK cell line) (Rattus norvegicus, UniProt Q02294); experiment: Calcium-dye indicator assay (FDSS, KCl depolarization); format: cell-based; conditions: calcium mobilization response to 50 mM KCl; six-point concentration-response
Procedure: A stable cell line (HEK parent) co-expressing the α1B (Cav2.2), β3 and α2δ subunits of the N-type calcium channel subunits was used. These cells were routinely grown as monolayers in low glucose-containing Dulbecco's Modified Eagle Medium supplemented with 10% FBS, 2 mM L-glutamine, 100 I.U./mL penicillin, 100 μg/mL streptomycin, 400 μg/mL G418 and 200 μg/mL Zeocin (split ratio=1:5). Cells were maintained in 5% CO2 at 37° C. Compounds of Formula (I) were prepared as 10 mM stocks in DMSO from neat compound, if available. Otherwise, the 5 or 10 mM DMSO stock solutions provided in-house were used.
Calcium mobilization responses to KCl depolarization were evaluated by measuring the intensity of calcium-mediated fluorescent signal in the presence of BD Calcium Assay Dye (BD Biosciences, Franklin Lakes, N.J., U.S.A.), utilizing a Functional Drug Screening System (FDSS) by Hamamatsu Corporation (Bridgewater, N.J., U.S.A.).
Twenty-four hours prior to assay, cells were seeded in clear-base poly-D-lysine coated 384-well plates (BD Biosciences) at a density of 5,000 cells per well in culture medium and grown overnight in 5% CO2 at 37° C. On the day of assay growth media were removed and cells were loaded with BD calcium assay dye (BD Biosciences) for 35 min at 37° C. under 5% CO2 and then for 25 min at room temperature. Utilizing the FDSS, cells were exposed to representative compounds of Formula (I) at varying concentrations and intracellular calcium was measured for 5 min prior to the addition of 50 mM KCl for an additional 3 min of measurement.
Maximal fluorescence intensity (FI) achieved upon addition of 50 mM KCl was exported from the FDSS software and further analyzed using GraphPad Prism 4 (Graph Pad Software Inc., CA, U.S.A.). Data were normalized to the maximum average counts from quadruplicate wells for each condition in the presence of 50 mM KCl and to the minimum average counts in the presence of buffer. Theoretical curves were generated using nonlinear regression curve-fitting analysis of either sigmoidal concentration-response or sigmoidal concentration-response (variable slope), and the IC50 values with the best-fit dose curve determined by GraphPad Prism were reported.

[2] = tested on: Cav2.2 (N-type calcium channel; α1B, α2δ and β3 subunits stably expressed in HEK293 cells); experiment: Automated electrophysiology assay (QPatch-HT patch clamp); format: cell-based; conditions: 0.1 μM; for QPatch % Inhibition, High Freq: high frequency stimulation (15th pulse of 5 Hz train); for QPatch % Inhibition, Low Freq: low frequency stimulation (1st pulse of train)
Procedure: The Cav2.2 (α1B) subunit (GenBank accession no. AAO53230; supplied by Lipscombe's laboratory at Brown University) was subcloned into pcDNA3.1, whereas the α2δ (M86621) and β3 (M88751) subunits were subcloned into pBudCE4.1 vectors. Stable cell lines expressing all three subunits were generated according to the following procedure: 1) HEK293 cells were transfected with α2δ−1/β3 expression constructs resulting in a stable cell line expressing α2δ−1 and β3 subunits that were selected under 200 μg/mL of Zeocin; 2) a stable cell line expressing α2δ−1/β3 subunits in high quantity as evidenced in its Western blots was isolated from the colony and purified; 3) this cell line was further transfected with Cav2.2 expression constructs, from which cells were subsequently selected under 400 μg/mL G418 and 200 μg/mL Zeocin; 4) these cells were clonally isolated, expanded and screened by Western blot analysis for expressing all three subunits
Cultures of cells stably expressing Cav2.2 were maintained at 37° C. in low glucose-containing Dulbecco's Modified Eagle medium (low glucose) under a 5% CO2 atmosphere. The medium was supplemented with 10% fetal bovine serum, 2 mM L-glutamine, 100 IU/mL penicillin, […] streptomycin, 400 μg/mL G418 and 200 μg/mL Zeocin.
High-throughput automated patch clamp system experiments were carried out using instruments (QPatch-HT) available from Sophion Biosciences, Inc. North Brunswick, N.J. Cells were grown in T175 flasks to 50%-90% confluence were enzymatically treated with Deatchin (Genlantis, San Diego, Calif., U.S.A.), centrifuged, rinsed and resuspended in 293 SFM II media (Life Technologies, Grand Island, N.Y., U.S.A.) supplemented with 25 mM HEPES (Sigma-Aldrich, St. Louis, Mo., U.S.A.) to a concentration of 2−3×10^6 cells/mL. Cells were added to automated cell preparation station on the QPatch-HT (Sophion Biosciences, North Brunswick, N.J., U.S.A.) and following a 10- to 30-min recovery period with gentle stirring, the assay protocol was initiated. During the automated cell preparation, cells were collected, centrifuged and resuspended in an extracellular (EC) solution containing 132 mM NaCl, 1.8 mM CaCl2, 5.4 mM KCl, 0.8 mM MgCl2, 10 mM glucose, and 10 mM HEPES (pH=7.4), adjusted with sucrose to 315 m0sm. The QPlate was primed with an intracellular solution containing 135 CsCl, 10 mM EGTA, 4 MgATP, 0.3 NaGTP, and 20 mM HEPES (pH=7.2), adjusted to approximately 290 m0sm with deionized water and the EC solution. Cells were added to the prepared QPlate wells by robotic pipettes of the QPatch-HT.
For cells determined to be in stable whole-cell patch clamp, the EC solution was replaced with a barium (Ba)/triethylammonium (TEA) solution containing 140 mM TEA-Cl, 10 mM BaCl2, 0.8 mM MgCl2, 10 mM glucose, and 10 mM HEPES (pH=7.4). High (40 mM) BaCl2 concentrations were made with adjustments of TEA-Cl (90 mM) to maintain the osmolarity. From a resting potential of −80 mV, a train of depolarizing pulses (15 pulses at 5 Hz, +20 mV) was delivered to the cell once every 30 sec for eight trains (4 min total), and the resulting currents were measured during a control period (no compound). This protocol was repeated for each subsequent addition of control buffer with or without compound (three periods total, each with four trains). The current generated in the 1st and 15th pulses of the last train of each period in the presence of each drug concentration was normalized to the current generated during the control period at the respective pulses (representing low- and high frequency stimulation, respectively). Data from both the second and third drug application period were analyzed for each cell. A final addition of Ba/TEA solution containing 60-100 uM CdCl2 was made to block all N-type current and “zero” the currents for each cell. A buffer/compound additions were made using a “spitting” feature of the QPatch-HT, which added three repretitions of 5 μL solution at the beginning of each recording period.

Row | SMILES | IC50 [1] | QPatch % Inhibition, High Freq [2] | QPatch % Inhibition, Low Freq [2]
1 | CCN(CC)c1ccccc1-n1nc(C2CC(C)(C)OC(C)(C)C2)cc1-c1ccc(Cl)cc1 [Compound 73, 2-[5-(4-Chlorophenyl)-3-(2,2,6,6-tetramethyltetrahydro-2H-pyran-4-yl)-1H-pyrazol-1-yl]-N,N-diethylaniline] | 50 nM | 1% | −18%
2 | COc1ccccc1-n1nc(C2CC(C)(C)OC(C)(C)C2)cc1-c1ccc(C#N)cc1 [Compound 2, 4-[1-(2-Methoxyphenyl)-3-(2,2,6,6-tetramethyltetrahydro-2H-pyran-4-yl)-1H-pyrazol-5-yl]-benzonitrile] | 1.1 nM | 53.5% | 56.5%
3 | COc1ccc(-n2nc(C3CCOC(C)(C)C3)cc2-c2ccc(Cl)cc2)c(C)c1 (stereo not drawn) [Compound 75, 5-(4-Chlorophenyl)-3-(2,2-dimethyltetrahydro-2H-pyran-4-yl)-1-(4-methoxy-2-methylphenyl)-1H-pyrazole] | 80 nM | 67% | 45%
4 | COc1ccccc1-n1nc(C2CC(C)(C)OC(C)(C)C2)cc1-c1ccc(N(C)C)nc1 [Compound 31, 5-[1-(2-Methoxyphenyl)-3-(2,2,6,6-tetramethyltetrahydro-2H-pyran-4-yl)-1H-pyrazol-5-yl]-N,N-dimethylpyridin-2-amine] | 3.5 nM | 1% | 4%
5 | CC1(C)CC(c2cc(-c3ccc(Cl)cc3)n(-c3ccccc3[N+](=O)[O-])n2)CC(C)(C)O1 [Compound 65, 5-(4-Chlorophenyl)-1-(2-nitrophenyl)-3-(2,2,6,6-tetramethyltetrahydro-2H-pyran-4-yl)-1H-pyrazole] | 7.8 nM | 50% | 44%
6 | CCNc1ccccc1-n1nc(C2CC(C)(C)OC(C)(C)C2)cc1-c1ccc(Cl)cc1 [Compound 66, 2-[5-(4-Chlorophenyl)-3-(2,2,6,6-tetramethyltetrahydro-2H-pyran-4-yl)-1H-pyrazol-1-yl]-N-ethylaniline] | 9.4 nM | 25% | 7%
7 | COc1ccccc1-n1nc(C2C[C@@H](C)O[C@H](C)C2)cc1-c1ccccc1 (relative stereo) [Compound 67, 3-[(trans)-2,6-Dimethyltetrahydro-2H-pyran-4-yl]-1-(2-methoxyphenyl)-5-phenyl-1H-pyrazole] | 12 nM | 65% | 55%
8 | COc1ccccc1-n1nc(C2CC(C)(C)OC(C)(C)C2)c(Br)c1-c1ccc(Cl)cc1 [Compound 70, 4-Bromo-5-(4-chlorophenyl)-1-(2-methoxyphenyl)-3-(2,2,6,6-tetramethyltetrahydro-2H-pyran-4-yl)-1H-pyrazole] | 24 nM | 25% | 24%
9 | COc1ccccc1-n1nc(C2CC(C)(C)OC(C)(C)C2)cc1-c1ccc2c(c1)OCO2 [Compound 4, 5-(1,3-Benzodioxol-5-yl)-1-(2-methoxyphenyl)-3-(2,2,6,6-tetramethyltetrahydro-2H-pyran-4-yl)-1H-pyrazole] | 1 nM | 39% | 35%
10 | COc1ccccc1-n1nc(C2CC(C)(C)OC(C)(C)C2)cc1-c1ccc(C)cc1 [Compound 10, 1-(2-Methoxyphenyl)-5-(4-methylphenyl)-3-(2,2,6,6-tetramethyltetrahydro-2H-pyran-4-yl)-1H-pyrazole] | 2 nM | 38% | 46%
11 | COc1ccccc1-n1nc(C2CC(C)(C)OC(C)(C)C2)cc1-c1ccc(Cl)s1 [Compound 14, 5-(5-Chlorothiophen-2-yl)-1-(2-methoxyphenyl)-3-(2,2,6,6-tetramethyltetrahydro-2H-pyran-4-yl)-1H-pyrazole] | 6.2 nM | 74.5% | 63%
12 | COc1ccccc1-n1nc(C2C[C@@H](C)O[C@H](C)C2)cc1-c1ccc(Cl)cc1 (relative stereo) [Compound 61, 5-(4-Chlorophenyl)-3-[(trans)-2,6-dimethyltetrahydro-2H-pyran-4-yl]-1-(2-methoxyphenyl)-1H-pyrazole] | 1.5 nM | 62% | 30%
13 | CCOc1ccc(-c2cc(C3CC(C)(C)OC(C)(C)C3)nn2-c2ccccc2OC)cn1 [Compound 19, 2-Ethoxy-5-[1-(2-methoxyphenyl)-3-(2,2,6,6-tetramethyltetrahydro-2H-pyran-4-yl)-1H-pyrazol-5-yl]-pyridine] | 5.4 nM | 21% | 10%
14 | COc1ccccc1-n1nc(C2CC(C)(C)OC(C)(C)C2)cc1-c1ccccc1 [Compound 16, 1-(2-Methoxyphenyl)-5-phenyl-3-(2,2,6,6-tetramethyltetrahydro-2H-pyran-4-yl)-1H-pyrazole] | 5.1 nM | 51% | 37%

— patent US8901314B2, “Substituted pyrazoles as N-type calcium channel blockers” (Janssen Pharmaceutica NV, priority 2012, dated 2014)
